Test results from PMC3792051, “Polyenylpyrrole Derivatives Inhibit NLRP3 Inflammasome Activation and Inflammatory Mediator Expression by Reducing Reactive Oxygen Species Production and Mitogen-Activated Protein Kinase Activation” (PLoS ONE, 2013).

Tests used:
Assay type in all cases: cell-based, murine
[1] = tested on: LPS-activated RAW 264.7 macrophages; assay: MAPK (ERK1/2, JNK1/2, p38) phosphorylation by Western blot; conditions: RAW 264.7, 20 µM 30 min, LPS 1 µg/ml 0-60 min
Experimental: Cells were washed twice with ice-cold phosphate-buffered saline (PBS) and lysed on ice for 5 min with lysis buffer (20 mM Tris-HCl, pH 7.5, 150 mM NaCl, 1 mM Na 2EDTA, 1 mM EGTA, 1% Triton X-100, 2.5 mM sodium pyrophosphate, 1 mM beta-glycerophosphate, 1 mM Na 3VO4, 1 µg/ml of leupeptin, 1 mM PMSF, protease inhibitor cocktail). The lysate was then centrifuged at 12,000 x g at 4 °C for 10 min and the pellet discarded. […]
Figure 5 Effect of compound 1h on ROS production and MAPK phosphorylation in LPS-activated macrophages. In (A), RAW 264.7 macrophages (5 × 10^5/ml; 1 ml) were incubated for 30 min with compound 1h (20 µM), N-acetyl cysteine (NAC; 10 mM), or DMSO (vehicle), then 2’, 7’-dichlorofluorescein diacetate (2 µM) was added for 30 min, followed by LPS (1 µg/ml) stimulation for the indicated time, then ROS levels were measured by detection of the mean fluorescence intensity (MFI) of the fluorophore carboxyl-DCF and expressing this value relative to that at time zero. In (B), RAW 264.7 macrophages (5 × 10^5/ml; 1 ml) were incubated for 30 min with compound 1h (20 µM) or DMSO, then LPS (1 µg/ml) was added and incubation continued for 0-60 min, then phosphorylation of ERK1/2, JNK1/2, and p38 was analyzed by Western blotting and expressed relative to actin expression and as a fold increase compared to the control group at 0 time. […]

[2] = tested on: LPS-activated J774A.1 macrophages; assay: NF-κB signaling (IKK-α/IκB-α Western blot, p65 nuclear translocation ELISA); conditions: J774A.1, 10-40 µM 30 min, LPS 20 min
Experimental: (§1) Cells were washed twice with ice-cold phosphate-buffered saline (PBS) and lysed on ice for 5 min with lysis buffer (20 mM Tris-HCl, pH 7.5, 150 mM NaCl, 1 mM Na 2EDTA, 1 mM EGTA, 1% Triton X-100, 2.5 mM sodium pyrophosphate, 1 mM beta-glycerophosphate, 1 mM Na 3VO4, 1 µg/ml of leupeptin, 1 mM PMSF, protease inhibitor cocktail). The lysate was then centrifuged at 12,000 x g at 4 °C for 10 min and the pellet discarded. Proteins in the supernatant were separated by SDS-PAGE and electrotransferred to a PVDF membrane (EMD Millipore Corporation), which was then blocked by incubation for 1 h at room temperature in blocking buffer [(5% nonfat milk in PBS containing 0.1% Tween 20 (PBST)], then incubated for 2 h at room temperature with the primary antibody diluted in blocking buffer. After three washes in PBST, the membrane was incubated for 1 h at room temperature with an appropriate HRP-conjugated secondary antibody diluted in blocking buffer and developed using an enhanced chemiluminescence Western blot detection system (EMD Millipore Corporation).
(§2) Nuclear proteins were extracted from RAW 264.7 and J774A.1 cells using a Nuclear Extract Kit (Active Motif) according to the manufacturer’s instructions and nuclear NF-κB p65 activation quantified using an ELISA-based TransAM NF-κB kit (Active Motif, Tokyo, Japan) according to the manufacturer’s protocol by reading the absorbance at 450 nm with a microplate absorbance reader (Bio-Rad Laboratories, Inc) and a reference wavelength of 655 nm.
(§3) Following LPS stimulation, IκB in the complex is phosphorylated by IκB kinase (IKK), ubiquitinated, and rapidly degraded in proteasomes, thus releasing NF-κB [30].
(§4) Figure 6 Effect of compound 1h on NF-κB activation in LPS-activated macrophages. (A) RAW 264.7 macrophages or (B) J774A.1 macrophages (both 5 × 10^5/ml; 1 ml) were incubated for 30 min with 10-40 µM compound 1h or DMSO, then LPS (1 µg/ml) was added and incubation continued for 20 min, then levels of phosphorylated and total IKK-α and IκB-α were measured by Western blotting. (C) RAW 264.7 macrophages or (D) J774A.1 macrophages (both 5 × 10^5/ml; 1 ml) were treated as in A and B, then nuclear translocation of NF-κB was analyzed by ELISA. (E) RAW-Blue^TM cells (5 × 10^5/ml; 1 ml) were incubated for 30 min with 2.5-40 µM compound 1h or DMSO, then LPS (1 µg/ml) was added and incubation continued for 24 h, then SEAP activity was measured by the QUANTI-Blue^TM assay and expressed as a percentage of that in the absence of compound 1h. In (A) and (B), the results are representative of those obtained in three different experiments. In (C-E), the data are expressed as the mean ± SD for three separate experiments. *, **, and *** indicate a significant difference at the level of p < 0.05, p < 0.01, and p < 0.001, respectively, compared to the DMSO/LPS group.

[3] = tested on: LPS-activated RAW 264.7 macrophages; assay: as above; conditions: RAW 264.7, 10-40 µM 30 min, LPS 20 min
Experimental: as §1, §2, §3, §4

## O=c1cc(O)cc(/C=C/C=C/C=C/C=C/c2[nH]ccc2Cl)o1 [compound 1h]
[1]
  Phosphorylation of ERK1/2, JNK1/2 and p38: inhibited phosphorylation of all 3 MAPKs
[2]
  IκB-α degradation: had a inhibitory effect on IκB-α degradation
  NF-κB nuclear translocation: inhibited NF-κB nuclear translocation
  Phosphorylation of IKK-α and IκB-α: inhibited phosphorylation of IKK-α and IκB-α in a dose-dependent manner
[3]
  IκB-α degradation: had a inhibitory effect on IκB-α degradation
  NF-κB nuclear translocation: inhibited NF-κB nuclear translocation
  Phosphorylation of IKK-α and IκB-α: inhibited phosphorylation of IKK-α and IκB-α in a dose-dependent manner
